Experiment: MALDI-TOF screening of Ni^2+ dependent hydrolysis in a combinatorial peptide library
Format: physicochemical
Settings: CH3CO-Gly-Ala-Thr-X-His-Z-Lys-Phe-Leu-NH2 library, Ni^2+ 2 mM, pH 8.2, 10 mM Tris, score=24/tm
In short: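 Sublibraries of Ac-Gly-Ala-Ser/Thr-X-His-Z-Lys-Phe-Leu-NH2, randomized at Z and fixed at X, were hydrolyzed at 1 mM total peptide with 2 mM Ni2+ in 10 mM Tris, pH 8.2, at 37 °C or 45 °C. Cleavage was scored visually in MALDI-TOF spectra at 2, 4, 6 and 8 h.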

| Substance | hydrolysis score from MALDI-TOF screening (37° C.) | hydrolysis score from MALDI-TOF screening (45° C.) |
| --- | --- | --- |
| Ac-GATQHGKFL-NH2 [TQHG] | 0 (a score of 0 if no trace of the product of hydrolysis was seen after 8 hours of incubation) | 0 (a score of 0 if no trace of the product of hydrolysis was seen after 8 hours of incubation) |
| Ac-GATQHHKFL-NH2 [TQHH] | 0 (a score of 0 if no trace of the product of hydrolysis was seen after 8 hours of incubation) | 0 (a score of 0 if no trace of the product of hydrolysis was seen after 8 hours of incubation) |
| Ac-GATQHIKFL-NH2 [TQHI] | 0 (a score of 0 if no trace of the product of hydrolysis was seen after 8 hours of incubation) | 3 (a score of 3 for detection at 8 hours) |
| Ac-GATQHKKFL-NH2 [TQHK] | 0 (a score of 0 if no trace of the product of hydrolysis was seen after 8 hours of incubation) | 3 (a score of 3 for detection at 8 hours) |
| Ac-GATQHLKFL-NH2 [TQHL] | 0 (a score of 0 if no trace of the product of hydrolysis was seen after 8 hours of incubation) | 3 (a score of 3 for detection at 8 hours) |
| Ac-GATQHMKFL-NH2 [TQHM] | 0 (a score of 0 if no trace of the product of hydrolysis was seen after 8 hours of incubation) | 0 (a score of 0 if no trace of the product of hydrolysis was seen after 8 hours of incubation) |
| Ac-GATQHNKFL-NH2 [TQHN] | 0 (a score of 0 if no trace of the product of hydrolysis was seen after 8 hours of incubation) | 0 (a score of 0 if no trace of the product of hydrolysis was seen after 8 hours of incubation) |
| Ac-GATQHPKFL-NH2 [TQHP] | 0 (a score of 0 if no trace of the product of hydrolysis was seen after 8 hours of incubation) | 0 (a score of 0 if no trace of the product of hydrolysis was seen after 8 hours of incubation) |
| Ac-GATQHQKFL-NH2 [TQHQ] | 0 (a score of 0 if no trace of the product of hydrolysis was seen after 8 hours of incubation) | 0 (a score of 0 if no trace of the product of hydrolysis was seen after 8 hours of incubation) |
| Ac-GATQHRKFL-NH2 [TQHR] | 3 (a score of 3 for detection at 8 hours) | 4 (a score of 4 for detection at 6 hours) |
| Ac-GATQHSKFL-NH2 [TQHS] | 0 (a score of 0 if no trace of the product of hydrolysis was seen after 8 hours of incubation) | 0 (a score of 0 if no trace of the product of hydrolysis was seen after 8 hours of incubation) |
| Ac-GATQHTKFL-NH2 [TQHT] | 0 (a score of 0 if no trace of the product of hydrolysis was seen after 8 hours of incubation) | 0 (a score of 0 if no trace of the product of hydrolysis was seen after 8 hours of incubation) |
| Ac-GATQHVKFL-NH2 [TQHV] | 0 (a score of 0 if no trace of the product of hydrolysis was seen after 8 hours of incubation) | 0 (a score of 0 if no trace of the product of hydrolysis was seen after 8 hours of incubation) |
| Ac-GATQHWKFL-NH2 [TQHW] | 3 (a score of 3 for detection at 8 hours) | 4 (a score of 4 for detection at 6 hours) |
| Ac-GATQHYKFL-NH2 [TQHY] | 0 (a score of 0 if no trace of the product of hydrolysis was seen after 8 hours of incubation) | 0 (a score of 0 if no trace of the product of hydrolysis was seen after 8 hours of incubation) |
| Ac-GATRHAKFL-NH2 [TRHA] | 0 (a score of 0 if no trace of the product of hydrolysis was seen after 8 hours of incubation) | 3 (a score of 3 for detection at 8 hours) |
